Test results reported in ChEMBL document CHEMBL1201862, “PubChem BioAssay data set” (2004).
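Results reflect a 48-hour exposure of cells in 96-well plates to compound at five concentrations. Here, GI50 denotes the concentration required for 50% inhibition of growth.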 The source made the active and inactive calls. Cut-off read from the data, not from the text of the source: active = GI50 up to about 1.1 µM and inactive = higher.

What was measured:
Assay in all cases: NCI-60 cell line screen, 48 h
COLO 205 = tested on: COLO 205
NCI-H460 = tested on: NCI-H460
MDA-MB-435 = tested on: MDA-MB-435
HOP-92 = tested on: HOP-92
A549 = tested on: A549
NCI-H226 = tested on: NCI-H226
CCRF-CEM = tested on: CCRF-CEM
RXF 393 = tested on: RXF 393
HCT-116 = tested on: HCT-116
SR = tested on: SR
OVCAR-4 = tested on: OVCAR-4
EKVX = tested on: EKVX
MDA-MB-231 = tested on: MDA-MB-231
T47D = tested on: T47D
SF-295 = tested on: SF-295
OVCAR-5 = tested on: OVCAR-5
SK-OV-3 = tested on: SK-OV-3
RPMI-8226 = tested on: RPMI-8226
U-251 = tested on: U-251
SF-268 = tested on: SF-268
SN12C = tested on: SN12C
SW-620 = tested on: SW-620
NCI/ADR-RES = tested on: NCI/ADR-RES
DU-145 = tested on: DU-145
ACHN = tested on: ACHN
MOLT-4 = tested on: MOLT-4
SNB-75 = tested on: SNB-75
A498 = tested on: A498
UO-31 = tested on: UO-31
K562 = tested on: K562
HOP-62 = tested on: HOP-62
HT-29 = tested on: HT-29
IGROV-1 = tested on: IGROV-1
MCF7 = tested on: MCF7
SF-539 = tested on: SF-539
HCT-15 = tested on: HCT-15
PC-3 = tested on: PC-3
KM12 = tested on: KM12
TK-10 = tested on: TK-10
HCC 2998 = tested on: HCC 2998
786-0 = tested on: 786-0
LOX IMVI = tested on: LOX IMVI
SK-MEL-5 = tested on: SK-MEL-5
UACC-257 = tested on: UACC-257
NCI-H23 = tested on: NCI-H23
MDA-N = tested on: MDA-N
SK-MEL-28 = tested on: SK-MEL-28
CAKI-1 = tested on: CAKI-1
HL-60 = tested on: HL-60
UACC-62 = tested on: UACC-62
Malme-3M = tested on: Malme-3M
M14 = tested on: M14
OVCAR-8 = tested on: OVCAR-8

Measured: GI50

O=C(Nc1nccs1)c1cc2c(cc1Cl)Sc1nccn1S2(=O)=O
inactive: COLO 205 16.7 µM | NCI-H460 16 µM | MDA-MB-435 17.2 µM | HOP-92 15.3 µM

CC(=O)OC(C)c1cc2c(s1)C(=O)c1c(C(C)OC(C)=O)csc1C2=O (configuration not stated)
1.58 µM: HCT-15
inactive: A549 1.97 µM | COLO 205 1.91 µM | NCI-H226 1.37 µM | CCRF-CEM 1.49 µM | RXF 393 1.31 µM | HCT-116 1.66 µM | SR > 100 µM | OVCAR-4 1.3 µM | EKVX 1.74 µM | MDA-MB-231 1.55 µM | T47D 1.85 µM | SF-295 1.28 µM | OVCAR-5 1.97 µM | SK-OV-3 3.6 µM | RPMI-8226 1.43 µM | U-251 1.18 µM | SF-268 3.01 µM | NCI/ADR-RES 1.26 µM | ACHN 1.42 µM | MOLT-4 1.95 µM | SNB-75 2.74 µM | A498 2.13 µM | UO-31 1.55 µM | HOP-62 1.24 µM | HOP-92 3.29 µM | HT-29 2.21 µM | IGROV-1 1.68 µM | PC-3 2.3 µM | KM12 1.25 µM | TK-10 2.29 µM | HCC 2998 1.73 µM | 786-0 1.89 µM
active: NCI-H460 0.5 µM | SN12C 0.682 µM | SW-620 0.0545 µM | DU-145 0.586 µM | K562 1.01 µM | MCF7 0.662 µM | SF-539 1.11 µM

Cn1c(=O)c2nc(Nc3ccccc3)[nH]c2n(C)c1=O
> 10 µM: HCT-15
inactive: LOX IMVI > 10 µM | A549 > 10 µM | COLO 205 > 10 µM | CCRF-CEM > 10 µM | RXF 393 > 10 µM | SK-MEL-5 > 10 µM | SR > 10 µM | OVCAR-4 > 10 µM | EKVX > 10 µM | MDA-MB-231 > 10 µM | T47D > 10 µM | SF-295 > 10 µM | UACC-257 > 10 µM | NCI-H23 > 10 µM | SK-OV-3 > 10 µM | RPMI-8226 > 10 µM | SF-268 > 10 µM | MDA-N > 10 µM | SN12C > 10 µM | SK-MEL-28 > 10 µM | CAKI-1 > 10 µM | SW-620 > 10 µM | HL-60 > 10 µM | DU-145 > 10 µM | MOLT-4 > 10 µM | SNB-75 > 10 µM | MDA-MB-435 > 10 µM | UACC-62 > 10 µM | K562 > 10 µM | HOP-62 > 10 µM | HOP-92 > 10 µM | HT-29 > 10 µM | IGROV-1 > 10 µM | MCF7 > 10 µM | Malme-3M > 10 µM | PC-3 > 10 µM | M14 > 10 µM | KM12 > 10 µM | TK-10 > 10 µM | HCC 2998 > 10 µM | OVCAR-8 > 10 µM | 786-0 > 10 µM
